PMC11527646, “Pharmacological blockade of the mast cell MRGPRX2 receptor supports investigation of its relevance in skin disorders” (Frontiers in Immunology, 2024)

What was measured:
[1] = molecular target: T1, monkey MRGPRX2 (Rhesus macaques) (Macaca mulatta, UniProt Q4QXU5); assay: Calcium mobilization in BacMam-transduced U2OS cells; type: cell-based; conditions: for Antagonist activity: likely due to receptor desensitization upon activation and not real antagonism
T1 construct: expressed in transfected cells; host or cells: U2OS transduced with BacMam virus
Experimental: (§1) Cell culture reagents were purchased from Thermo Fisher Scientific unless otherwise stated. The LAD2 human mast cell line was in-licensed from National Institutes of Health (NIH) and routinely cultured in StemPro™-34 SFM with nutrient supplement, 1× GlutaMax™, and recombinant human SCF (100 ng/mL). HEK293-MRGPRX2/Gα15 cells were cultured in DMEM containing 10% FBS. The parental U2OS cells were culture in DMEM/F-12 containing 10% FBS. BacMam virus containing human MRGPRX2 gene or animal orthologs [mouse Mrgprb2 (Gene ID: 243979), rat Mrgprb3 (Gene ID: 691194), dog MRGPRX2 (Gene ID: 102125889), cynomolgus monkey MRGPRX2 (Gene ID: 692078), and rhesus monkey MRGPRX2] were used to transduce U2OS cells for transient expression.
(§2) Supplemental Table 1: Compound A and Compound B are human MRGPRX2 selective antagonists. Antagonist and agonist activities of the two compounds were determined in calcium mobilization assays for human MRGPRX2 and its animal orthologs from various species. The activities were measured in […] (Molecular Devices) instrument using U2OS cells transduced with BacMam virus for transient expression of the relevant receptors. Data are presented as mean ± SEM when applicable.
(§3) Compound A and Compound B up to the highest concentration (100 µM) tested. In the antagonist […]
(§4) Compound A and B, respectively. […]
(§5) MRGPRX2 and Gα15 proteins (Fig. 1). On monkey MRGPRX2 receptors (both Cynomolgus […]
(§6) receptor desensitization upon activation and not real antagonism. […]

[2] = molecular target: T2, monkey MRGPRX2 (Cynomolgus macaques) (Macaca fascicularis, UniProt Q5U9D9); assay: as above; type: cell-based; conditions: for Antagonist activity: likely due to receptor desensitization upon activation and not real antagonism
T2 construct: expressed in transfected cells; host or cells: U2OS transduced with BacMam virus
T2 sequence (Q5U9D9 1-330): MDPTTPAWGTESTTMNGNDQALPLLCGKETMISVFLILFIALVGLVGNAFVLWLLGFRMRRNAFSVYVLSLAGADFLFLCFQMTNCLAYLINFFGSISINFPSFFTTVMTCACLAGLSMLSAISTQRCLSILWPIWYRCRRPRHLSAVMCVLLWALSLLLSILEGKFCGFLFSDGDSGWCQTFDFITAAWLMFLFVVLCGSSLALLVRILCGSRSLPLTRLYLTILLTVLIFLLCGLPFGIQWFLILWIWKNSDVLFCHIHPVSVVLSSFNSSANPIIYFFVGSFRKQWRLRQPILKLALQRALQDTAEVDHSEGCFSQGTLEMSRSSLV
Experimental: as §1, §2, §3, §4, §5, §6

[3] = molecular target: T3, MRGPRX2 (Homo sapiens, UniProt Q96LB1); assay: Calcium mobilization (FLIPR TETRA) in BacMam-transduced U2OS cells; type: cell-based; parameters: expressed in transfected cells; host or cells: U2OS transduced with BacMam virus; Agonist activity: dose or concentration left out as unconfirmed; conditions: for Agonist activity: up to the highest concentration tested
T3 sequence (Q96LB1 1-330): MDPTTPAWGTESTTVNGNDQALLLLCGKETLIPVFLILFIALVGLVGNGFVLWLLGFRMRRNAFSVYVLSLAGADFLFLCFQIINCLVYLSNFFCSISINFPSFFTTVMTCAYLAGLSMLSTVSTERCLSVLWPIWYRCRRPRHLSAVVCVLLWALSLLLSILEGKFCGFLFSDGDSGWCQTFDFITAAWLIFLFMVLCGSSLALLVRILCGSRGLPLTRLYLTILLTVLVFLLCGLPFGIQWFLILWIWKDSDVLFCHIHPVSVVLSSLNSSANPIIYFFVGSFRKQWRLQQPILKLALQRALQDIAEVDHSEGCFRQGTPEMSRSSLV
Experimental: as §1, §2, §3, §4

[4] = molecular target: T4, MRGPRX1 (Homo sapiens, UniProt Q96LB2); assay: GPCR selectivity cellular assay; type: cell-based; conditions: for EC50: Agonism, read-out: Agonist Activity (EC50); for IC50: Antagonism, read-out: Antagonist Activity (IC50)
T4 construct: expressed in transfected cells
Experimental: Antagonist and/or agonist activities of the two compounds were determined in cellular assays for 20 human G-protein coupled receptors (GPCR) beside MRGPRX2. Recombinant over-expression systems in mammalian cells were used for all assays listed in this table. […]
reported as ‘>’ the highest compound concentration allowed in that assay. […]
Agonist Activity (EC50 ) or Antagonist Activity (IC50 ), nM

[5] = molecular target: T5, A2A receptor (ADORA2A) (Homo sapiens, UniProt P29274); assay: GPCR selectivity cellular assay; type: cell-based; conditions: Agonism; read-out: Agonist Activity (EC50)
T5 construct: expressed in transfected cells

[6] = molecular target: T3, MRGPRX2; assay: Ca2+ mobilization assay (FLIPR TETRA) in HEK293-MRGPRX2/Gα15 cells; type: cell-based; parameters: expressed in transfected cells; conditions: for EC50: agonist mode, highest concentration tested 30 μM, read-out: Activation of Ca2+ Mobilization EC50
Experimental: A Ca^2+ mobilization assay was used to screen for small-molecule compounds with agonist or antagonist activity against human MRGPRX2 using HEK293-MRGPRX2/Gα15 cells. Two million small-molecule compounds in GSK collection were screened at single concentration of 10 μM on FLIPR^TETRA (Molecular Devices) instruments in dual detection mode for both activation and inhibition activities. Cortistatin 14 at approximately EC80 concentration was used as the activation ligand for the inhibition phase of the high-throughput screening. Compounds of interest were followed up and characterized in concentration response curves to determine their mode of activity, potency, and selectivity.
Figure 1 Identification of two structurally distinct MRGPRX2 antagonists: Compound (A) and Compound (B). Calcium mobilization assays were performed in FLIPR^TETRA (Molecular Devices) with two novel MRGPRX2 antagonists using HEK293 cells overexpressing MRGPRX2 and Gα15 proteins. […] Dose-dependent inhibition (A) of Cortistatin 14–mediated MRGPRX2 activation was measured, and antagonist potencies (B) are presented as mean ± SEM of 66 or 22 independent experiments for Compound A and Compound B, respectively.

[7] = system: ion channel and enzyme targets; assay: In vitro assays of the human safety prediction panel; conditions: data not shown
From the text: Among them, the NK1 receptor with which SP is the canonical and high-affinity endogenous ligand.

[8] = system: rat MrgB3; assay: Calcium mobilization in BacMam-transduced U2OS cells; type: cell-based
Experimental: as §1, §2, §3, §4
(§7) Taking together, […]

[9] = molecular target: T6, mouse MrgB2 (Mus musculus, UniProt Q3KNA1); assay: as above; type: cell-based
T6 construct: expressed in transfected cells; host or cells: U2OS transduced with BacMam virus
Experimental: as §1, §2, §3, §4, §7

[10] = system: dog MRGPRX2 (beagle & boxer); assay: as above; type: cell-based
Experimental: as §1, §2, §3, §4, §7

[11] = molecular target: T3, MRGPRX2; assay: Human ex vivo skin microdialysis, Substance P-stimulated histamine release; type: cell-based; conditions: Substance P 50 μM; three donors
Experimental: Microdialysis probes with a 3,000-kDa molecular weight cutoff (EP Medical, Copenhagen, Denmark) were primed for 1 h using a basal perfusate consisting of 0.1% human serum albumin in piperazine-N,N′-bis(2-ethanesulfonic acid) (PIPES) buffer to minimize non-specific adsorption to probe components.
Skin specimens measuring approximately 4 cm × 14 cm were excised from the parent skin sample, and subcutaneous fat was removed mechanically. The skin specimens were fixated on Styrofoam and guide cannulas (21G) were inserted intradermally at least 1 cm apart and ≥ 1 cm from the edge of the skin specimen. Ten probes were introduced into each skin specimen by means of the guide cannulas with an intradermal probe span of 20 mm. Probes were perfused at a flow rate of 3.0 μL/min (used throughout the experiment) for 30 min using basal perfusate in order to remove any unspecific histamine release caused by insertion trauma.
Next, the dialysate was collected for 10 min to assess basal skin histamine levels (“basal”). The probes were then switched to perfusion with a perfusate containing antagonists at different concentrations for 60 min to pre-treat the skin specimens and evaluate potential off-target effects, which could present as histamine release caused by antagonist itself (“pre-treatment”). […] Histamine in the dialysates was quantified as described above. […]

T4 sequence (Q96LB2 whole entry): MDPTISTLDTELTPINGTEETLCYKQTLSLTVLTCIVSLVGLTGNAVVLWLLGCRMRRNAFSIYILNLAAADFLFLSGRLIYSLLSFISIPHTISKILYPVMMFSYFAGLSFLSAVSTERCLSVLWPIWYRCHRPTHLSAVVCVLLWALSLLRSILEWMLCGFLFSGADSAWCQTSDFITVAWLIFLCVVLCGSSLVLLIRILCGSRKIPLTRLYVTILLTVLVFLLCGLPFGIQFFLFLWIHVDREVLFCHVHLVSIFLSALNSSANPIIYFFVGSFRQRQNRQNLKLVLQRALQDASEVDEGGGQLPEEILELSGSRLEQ
T1 sequence (Q4QXU5 whole entry): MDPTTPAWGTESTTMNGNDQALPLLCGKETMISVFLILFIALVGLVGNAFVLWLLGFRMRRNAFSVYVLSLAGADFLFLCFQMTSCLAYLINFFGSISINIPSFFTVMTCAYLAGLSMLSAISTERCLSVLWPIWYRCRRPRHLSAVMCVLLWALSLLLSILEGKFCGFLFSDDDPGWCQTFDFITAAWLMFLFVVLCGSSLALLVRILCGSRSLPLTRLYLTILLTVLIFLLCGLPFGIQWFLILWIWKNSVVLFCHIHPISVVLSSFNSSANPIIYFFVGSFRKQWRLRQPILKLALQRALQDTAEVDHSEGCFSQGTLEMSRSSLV
T6 sequence (Q3KNA1 whole entry): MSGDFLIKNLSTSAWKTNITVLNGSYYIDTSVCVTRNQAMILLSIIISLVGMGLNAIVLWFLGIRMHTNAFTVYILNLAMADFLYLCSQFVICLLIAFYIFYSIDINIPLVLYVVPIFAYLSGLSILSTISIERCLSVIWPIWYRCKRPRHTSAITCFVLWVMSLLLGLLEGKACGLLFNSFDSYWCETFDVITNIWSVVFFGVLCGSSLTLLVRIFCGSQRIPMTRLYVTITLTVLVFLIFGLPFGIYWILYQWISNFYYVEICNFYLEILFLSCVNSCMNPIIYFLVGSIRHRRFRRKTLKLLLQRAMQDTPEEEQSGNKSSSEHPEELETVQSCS
T5 sequence (P29274 whole entry): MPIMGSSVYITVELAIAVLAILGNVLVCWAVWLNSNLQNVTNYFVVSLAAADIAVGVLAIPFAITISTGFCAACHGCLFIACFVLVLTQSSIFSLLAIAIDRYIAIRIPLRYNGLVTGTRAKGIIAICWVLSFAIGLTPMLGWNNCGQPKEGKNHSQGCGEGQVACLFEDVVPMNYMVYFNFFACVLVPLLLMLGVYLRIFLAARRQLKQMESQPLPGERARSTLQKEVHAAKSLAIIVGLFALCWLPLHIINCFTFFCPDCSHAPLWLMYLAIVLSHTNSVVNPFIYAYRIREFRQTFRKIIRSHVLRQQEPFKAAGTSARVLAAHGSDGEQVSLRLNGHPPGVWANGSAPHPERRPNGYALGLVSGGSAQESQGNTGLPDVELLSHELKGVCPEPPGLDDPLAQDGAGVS

Row | Compound | Agonist activity [1] | Antagonist activity [1] | Agonist activity [2] | Antagonist activity [2] | IC50 [3] [µM] | Agonist activity [3] | EC50 [4] [µM] | IC50 [4] [µM] | EC50 [5] [µM] | IC50 [6] [µM] | EC50 [6] [µM] | Activity on ion channel and enzyme targets [7] | Agonist and antagonist activity [8] | Agonist and antagonist activity [9] | Agonist and antagonist activity [10] | Concentration achieving complete blockade of Substance P response (histamine release) [11] [µM] | IC50 ([3]; Cortistatin 14 at approx. EC80, U2OS cells, read-out: Antagonist IC50 against Cortistatin 14) [µM] | IC50 ([6]; Cortistatin 14 at approx. EC80, mean ± SEM of 66 (Compound A) or 22 (Compound B) experiments, read-out: Inhibition of Cort-14 Mediated MRGPRX2 Activation IC50) [µM]
1 | CC1(C)C(C(=O)Nc2ccccn2)C1(C)C [Compound A] | weak agonist activities | very weak antagonist activities | weak agonist activities | very weak antagonist activities | 0.0446 | No agonist activity was detected | > 100 | > 100 | > 100 | 0.05 | > 30 | inactive | No agonist nor antagonist activity | No agonist nor antagonist activity | No agonist nor antagonist activity | 3 |  | 
2 | C[C@@H](C(=O)Nc1cnc(Oc2ccc(F)cc2F)cn1)N1CCC(F)(F)[C@@H](c2cc[n+]([O-])cc2)C1 [Compound B] | weak agonist activities | very weak antagonist activities | weak agonist activities | very weak antagonist activities |  | No agonist activity was detected | > 100 | > 100 | > 100 |  | > 30 | inactive | No agonist nor antagonist activity | No agonist nor antagonist activity | No agonist nor antagonist activity | 0.03 | 0.0036 | 0.0029
